# Results as given in patent US10639373B2, “Pyrrolobenzodiazepine antibody drug conjugates and methods of use” (priority 2015, dated 2020).
# Experiments:
# [1] = system: duplex oligonucleotides Pu-GAAATC-Py and Pu-GAAATG-Py; assay: Oligonucleotide binding/alkylation assay
# [2] = Exploratory single dose free drug toxicology study in rats; assay type: in vivo, rat; conditions: for reticulocytes: all doses, 72 hours post-dose; for reticulocyte recovery: by 168 hours post-dose; for MTD at 7 day: rat, in vivo
# Description: An exploratory single dose toxicology study was conducted in rats comparing the C-1 (PBD bis alkylator) and DM-2 (PBD monoalkylator) free drugs. Animals received a single IV dose of C-1, DM-2, or vehicle and were monitored for a 7-day recovery period.
# Toxicity was assessed by clinical observations and clinical pathology (hematology and clinical chemistry at 72 and 168 hours post-dose). In general, results were similar for DM-2 at ten times the dose level of C-1.
# [3] = 100 μM compound, 50 μM DNA, 1 hour, 37° C.
compound,measurement,setting,value
"C=C1C[C@H]2CNc3cc(OCCCCCOc4cc5c(cc4OC)C(=O)N4CC(=C)C[C@H]4CN5)c(OC)cc3C(=O)N2C1 [C-3, (11aS,11a′S)-8,8′-(pentane-1,5-diylbis(oxy))bis(7-methoxy-2-methylene-1,2,3,10,11,11a-hexahydro-5H-benzo[e]pyrrolo[1,2-a][1,4]diazepin-5-one)]",DNA binding,[1]; imine bonds of C-1 reduced,completely eliminates DNA binding
"C=C1C[C@H]2C=Nc3cc(OC)c(OC)cc3C(=O)N2C1 [C-2, (S)-7,8-dimethoxy-2-methylene-1,2,3,11a-tetrahydro-5H-benzo[e]pyrrolo[1,2-a][1,4]diazepin-5-one]",less efficiency in covalently alkylating the duplex oligonucleotides than dimer C-1,[1]; [3],> 50 times
"C=C1C[C@H]2C=Nc3cc(OCCCCCOc4cc5c(cc4OC)C(=O)N4CC(=C)C[C@H]4C(=O)N5)c(OC)cc3C(=O)N2C1 [DM-2, (S)-7-methoxy-8-((5-(((S)-7-methoxy-2-methylene-5-oxo-2,3,5,11a-tetrahydro-1H-benzo[e]pyrrolo[1,2-a] [1,4]diazepin-8-yl)oxy)pentyl)oxy)-2-methylene-2,3-dihydro-1H-benzo[e]pyrrolo[1,2-a] [1,4]diazepine-5,11(10H,11aH)-dione]",clinical pathology,[2]; 2 mg/kg,clinical pathology changes indicative of liver and kidney toxicity
same,outcome,[2]; 2 mg/kg,euthanized in moribund condition on Day 4
same,body weight loss,"[2]; 2 mg/kg, Day 2 to 4",approximately 14%
same,tolerability,"[2]; 0.5 and 1 mg/kg, single IV dose",well tolerated
same,reticulocytes,[2],dose-dependent decrease in reticulocytes
same,reticulocyte recovery,[2],recovered in the 0.5 and 1 mg/kg groups
same,MTD at 7 day,[2]; single IV dose,1 mg/kg
same,main target organs,[2]; single IV dose,"bone marrow, kidney, and liver"
"C=C1C[C@H]2C=Nc3cc(OCCCCCOc4cc5c(cc4OC)C(=O)N4CC(=C)C[C@H]4C=N5)c(OC)cc3C(=O)N2C1 [C-1, (11aS,11a′S)-8,8′-(pentane-1,5-diylbis(oxy))bis(7-methoxy-2-methylene-1,2,3,11a-tetrahydro-5H-benzo[e]pyrrolo[1,2-a][1,4]diazepin-5-one), reference compound]",more efficiency to covalently alkylate the duplex oligonucleotides than monoamine DM-1,[1]; [3],2-3 times
same,clinical pathology,[2]; 0.2 mg/kg,clinical pathology changes indicative of liver and kidney toxicity
same,tolerability,"[2]; 0.05 and 0.1 mg/kg, single IV dose",well tolerated with no clinical signs
same,reticulocytes,[2],dose-dependent decrease in reticulocytes
same,reticulocyte recovery,[2],recovering in the 0.05 and 0.1 mg/kg groups
same,MTD at 7 day,[2]; single IV dose,0.1 mg/kg
same,main target organs,[2]; single IV dose,"bone marrow, kidney, and liver"
same,toxic potency relative to DM-2,[2]; single IV dose,approximately ten times as potent as DM-2
